Laboratory results from patent EP0639376A1, “Liquid composition containing amide derivative” (TERUMO KABUSHIKI KAISHA, priority 1993, dated 1995).
One block for each compound: values may come before it.

What was measured:
Assay type in all cases: physicochemical
[1] = Test for solubility: dissolution of the compound observed with the naked eye; details: Table 5; 0.05 g compound, 1.0 g HCO-60, pH buffer
Method: To test the solubility of the above-mentioned compound, various experiments were carried out under different conditions in the presence or absence of a nonionic surfactant.
Formulation No. 1 was prepared by heating and dissolving 0.05 g of Compound (III) and 0.5 g of polyoxyethylene-hardened castor oil (HCO-60) in a beaker at about 60°C followed by gradually adding thereto lactic acid/sodium lactate buffer (pH 5.0) as the pH buffer while stirring to dissolve them.

[2] = Test for stability: percentage of compound remaining after storage at 60°C, measured by liquid chromatography; details: for remaining at 480 h: buffer with hco-60, Table 5, 0.05 g compound, 1.0 g HCO-60, pH buffer, 60°C, 20 days, read-out: Stability (as percentage of compound remained after stored at 60°C for 20 days)
Method: The difference in the stability of Compound (III) was tested, depending on the solubilizer added thereto. The stability was represented by the percentage (%) of the amount of Compound (III) remained after storage. Precisely, each sample formulation shown in Table 2 below was put in a glass tube with a screw cap and stored for 10 days and 20 days both at 60°C, whereupon the percentage of the amount of the compound remained after the storage was measured by liquid chromatography. From the value thus measured, the stability of the compound was evaluated.
Next, to examine the influence of the concentration of the solubilizer on the stability of Compound (III), experiments were carried out where the concentration of the nonionic surfactant to be added was stepwise increased while the concentration of Compound (III) was kept constant. Precisely, each sample formulation shown in Table 3 below was stored for 10 days and 20 days both at 60°C, whereupon the percentage (%) of the amount of Compound (III) remained after the storage was measured by liquid chromatography. On the basis of the thus-measured percentage, the stability of the compound was evaluated.

[3] = Mean particle size of formed micelles by light-scattering photometry; set-up: key: - : No micelle detected; details: Compound (III) 0.005 W/V %
Description: It was confirmed that, when the concentration of Compound (III) was 0.005 W/V % and when the concentration of HCO-60 was 0.10 W/V % or more, micelles having a mean particle size of from 16 to 20 nm were formed.

[4] = Solubility of the compound in solvents (description of the substance)

Structure (SMILES): CCOC(=O)Oc1ccc(/C=C/C(=O)NCCN2CCC(OC(c3ccccc3)c3ccccc3)CC2)cc1OC(=O)OCC [(VI)]
Solubility [1]: Dissolved clear.
remaining at 480 h [2]: 90.9%

Structure (SMILES): CCOC(=O)Oc1ccc(/C=C/C=C/C(=O)NCCCN2CCN(C(c3ccccc3)c3ccccc3)CC2)cc1OC [Compound (V)]
Solubility [1]: Dissolved clear.
remaining at 480 h [2]: 92.1%

Continued, values first:

Solubility [1]: Dissolved clear.
remaining at 480 h [2]: 92.6%
Structure (SMILES): CCOC(=O)Oc1ccc(/C=C/C=C/C(=O)NCCN2CCC(OC(c3ccccc3)c3ccccc3)CC2)cc1OC(=O)OCC [(VII)]

stabilization of Compound (III) ([2]; result in words, from Table 3, HCO-60 0.10 W/V % or more): almost satisfactorily stabilized
Mean Particle Size ([3]; HCO-60 0.05 W/V %): -
Mean Particle Size ([3]; HCO-60 0.10 W/V %): 16.2 +/- 3.7 nm
Mean Particle Size ([3]; HCO-60 0.25 W/V %): 19.6 +/- 4.3 nm
Mean Particle Size ([3]; HCO-60 0.50 W/V %): 18.3 +/- 4.5 nm
Mean Particle Size ([3]; HCO-60 1.00 W/V %): 18.8 +/- 4.2 nm
solubility in acetone [4]: easily soluble
solubility in acetonitrile [4]: soluble in acetonitrile to some degree
solubility in dichloroethane [4]: easily soluble
solubility in ethanol [4]: hardly soluble
solubility in water [4]: almost insoluble
Structure (SMILES): CCOC(=O)Oc1ccc(/C=C/C=C/C(=O)NCCN2CCC(OC(c3ccccc3)c3ccccc3)CC2)cc1OC [Compound (III), 1-[{5'-(3''-methoxy-4''-ethoxycarbonyloxyphenyl)-2',4'-pentadienoyl}aminoethyl]-4-diphenylmethoxypiperidine]

Solubility [1]: Dissolved clear.
remaining at 480 h [2]: 91.2%
Structure (SMILES): CCOC(=O)Oc1ccc(/C=C/C(=O)NCCN2CCC(OC(c3ccccc3)c3ccccc3)CC2)cc1OC [Compound (IV)]
